The target in experiment [1] is RiSTING. Put plainly: ITC binding of cGG to RiSTING. Also on record: species or system Riemerella anatipestifer. On the procedure:
ITC experiments were performed at 25 °C using nano-ITC (TA Instruments). Purified RiSTING and ElSTING were exchanged into assay buffer containing 20 mM Tris pH 8.0, 150 mM NaCl. 10 mM stock of cGG (Item No. 17144, Cayman Chemical) and cAA (Item No. 17753, Cayman Chemical) were prepared by dissolving in the same buffer. 20 injections of ligand (0.9-1.2 mM) were sequentially titrated to tested STING protein solution (30-100 μM) with a stirring speed of 300 rpm. Data were fit to “independent” model to derive ΔH, ΔS, and Kd values using NanoAnalyze v3.12.5 (TA Instruments).

For a further experiment, the system named is MyTIR-STING. Put plainly: NAD+ cleavage activity assay, MyTIR-STING (control). The class given is biochemical. To be noted: 1 μM cGG. How it is done:
The NAD^+ cleavage activity of the N-terminal TIR domain of full-length TIR-STING proteins were accessed using the previously described protocol. Briefly, 100 μl reaction mixture containing ligand (cGG or cAA) at the indicated concentration and 500 μM ε-NAD (Product No. N2630, Sigma-Aldrich) in the assay buffer (20 mM HEPES pH 7.5, 100 mM KCl) was pre-incubated at room temperature. Tested TIR-STING protein (0.5–1 μM) was then added to start the reaction. The fluorescence signal was continuously monitored for 1 hour at an emission wavelength of 410 nm with excitation at 300 nm using Synergy H1 microplate reader (BioTek). The changes of relative fluorescence units at different time points were recorded.

The subject of experiment [2] is RiSTING. As to the kind of experiment: Dynamic light scattering of RiSTING with or without cGG. As to conditions: two molar excesses of cGG; 84% of particles; 9.0 nm without cGG. Details: species or system Riemerella anatipestifer. On the procedure: The DLS experiments were performed using Zetasizer Nano ZS90 (Malvern instruments). Briefly, protein samples containing 1 mg/ml RiSTING in the presence or absence of 2-fold molar excess of cGG were prepared and degassed. Polydispersity index (PDI) and globule size were examined at 25 °C.

The target of experiment [3] is oligomerization mutant ElTIR-STING^D175R,S179R (Epilithonimonas lactis DSM 19921). Put plainly: SEC; gel-filtration analysis of full-length ElTIR-STING in the absence of cAA. (In gel filtration, larger molecules generally elute earlier.)
For experiment [4] the target is unchanged. As to the kind of experiment: SEC; gel-filtration analysis of full-length ElTIR-STING in the presence of cAA at 2-fold molar excess.

“And” between values parts separate entries of the source, which are not always exact repeats. Equal values may be shown once.

Consider `Nc1nc2c(ncn2[C@@H]2O[C@@H]3COP(=O)(O)O[C@H]4[C@@H](O)[C@H](n5cnc6c(=O)[nH]c(N)nc65)O[C@@H]4COP(=O)(O)O[C@H]3[C@H]2O)c(=O)[nH]1` [cGG, 3′3′-cyclic di-GMP], for which the “binding affinity (in words)” value on RiSTING [1] is on record as “nanomolar affinity”. Moreover, the Kd (in general, the concentration at which binding is half-saturated) at RiSTING [1] (25 °C, 20 mM Tris pH 8.0, 150 mM NaCl, read-out: dissociation constant (Kd)) came out at 0.1 nM. Further, the “ΔRFU after 10 mins, Average” value with MyTIR-STING (n = 3) stood at 31574 RFU. Further, the “ΔRFU after 10 mins (single replicates)” value with MyTIR-STING (positive control) was 32209 RFU and 31707 RFU and 30806 RFU. The “major particle size of RiSTING” value in the experiment with RiSTING [2] worked out at 40.6 nm.

Consider “oligomerization mutant ElTIR-STING^D175R,S179R (natural protein)”, for which the stoichiometry N (usually a count of units in the complex or per binding partner) is 6 and 2 in experiment [3]; 6 and 2 in experiment [4].
